Patent US20140249135A1, “PIM KINASE INHIBITORS AND METHODS OF THEIR USE” (NOVARTIS AG, priority 2007, published 2014)
Where two headings read alike, the source gives them in different places.

Columns and labels:
Assay type in all cases: biochemical
Pim3 kinase = Pim3 kinase (Homo sapiens, UniProt Q86V86); assay: Pim3 ATP depletion assay; conditions: read-out: PIM3 IC50
Pim1 kinase = Pim1 kinase (Homo sapiens, UniProt P11309); assay: Pim1 ATP depletion assay;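 note: Luciferase-luciferin luminescence readout of residual ATP after PIM1 transfers phosphate to a peptide substrate, 40 µM ATP added, reaction run to roughly half ATP consumption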
Chain of Pim1 kinase (P11309 whole entry): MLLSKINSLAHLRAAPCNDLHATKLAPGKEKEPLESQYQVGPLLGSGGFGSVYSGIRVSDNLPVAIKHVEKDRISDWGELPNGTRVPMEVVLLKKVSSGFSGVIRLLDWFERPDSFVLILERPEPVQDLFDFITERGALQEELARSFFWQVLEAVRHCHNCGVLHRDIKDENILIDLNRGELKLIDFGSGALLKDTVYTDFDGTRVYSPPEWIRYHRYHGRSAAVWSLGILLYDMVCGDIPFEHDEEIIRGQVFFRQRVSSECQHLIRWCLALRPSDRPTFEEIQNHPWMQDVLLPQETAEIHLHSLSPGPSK

Pim2 kinase = Pim2 kinase (Homo sapiens, UniProt Q9P1W9); assay: Pim2 ATP depletion assay; conditions: read-out: PIM2 IC50;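 note: Luciferase-based luminescent readout of ATP remaining after PIM2 phosphorylates a BAD peptide, final 5 nM enzyme, 4 µM ATP, 10 µM peptide, 2.5% DMSO, run to roughly half ATP consumption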
Chain of Pim2 kinase (Q9P1W9 whole entry): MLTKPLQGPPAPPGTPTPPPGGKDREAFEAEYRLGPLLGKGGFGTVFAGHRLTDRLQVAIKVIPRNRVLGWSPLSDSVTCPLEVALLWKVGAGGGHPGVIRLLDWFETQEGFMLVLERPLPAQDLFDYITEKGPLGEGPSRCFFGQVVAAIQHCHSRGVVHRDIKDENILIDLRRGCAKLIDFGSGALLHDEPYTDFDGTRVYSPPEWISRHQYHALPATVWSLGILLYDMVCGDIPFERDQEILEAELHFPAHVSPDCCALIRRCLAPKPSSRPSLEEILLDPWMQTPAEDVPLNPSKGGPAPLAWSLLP

[1] = Pim1 ATP depletion assay, read-out: PIM1 IC50

IC50 (Pim3 kinase)	IC50 (Pim1 kinase; [1])	IC50 (Pim2 kinase)	IC50 (Pim1 kinase)	SMILES
< 1000 nM	< 1000 nM	< 1000 nM	–	Cc1cc(F)c(-c2ccc(N)c(C(=O)Nc3cnccc3N3CCCC(O)C3)n2)cc1Cl (stereo not drawn) [Example 654, 3-Amino-6-(5-chloro-2-fluoro-4-methyl-phenyl)-pyridine-2-carboxylic acid (3-hydroxy-3,4,5,6-tetrahydro-2H-[1,4′]bi-pyridinyl-3′-yl)-amide]
< 1000 nM	< 1000 nM	< 1000 nM	–	Nc1ccc(-c2cccc(Cl)c2F)nc1C(=O)Nc1cnccc1N1CCCC(O)C1 (stereo not drawn) [Example 655, 3-Amino-6-(3-chloro-2-fluoro-phenyl)-pyridine-2-carboxylic acid (3-hydroxy-3,4,5,6-tetra-hydro-2H-[1,4′]bipyridinyl-3′-yl)-amide]
< 1000 nM	< 1000 nM	< 1000 nM	–	Nc1ccc(-c2cc(C(=O)Nc3ccccc3)ccc2F)nc1C(=O)Nc1cnccc1N1CCCC(O)C1 (stereo not drawn) [Example 656, 3-Amino-6-(2-fluoro-5-phenyl-carbamoyl-phenyl)-pyridine-2-carboxylic acid (3-hydroxy-3,4,5,6-tetrahydro-2H-[1,4′]bi-pyridinyl-3′-yl)-amide]
< 1000 nM	< 1000 nM	< 1000 nM	–	CN(C)C(=O)c1ccc(F)c(-c2ccc(N)c(C(=O)Nc3cnccc3N3CCCC(O)C3)n2)c1 (stereo not drawn) [Example 657, 3-Amino-6-(5-dimethyl-carbamoyl-2-fluoro-phenyl)-pyridine-2-carboxylic acid (3-hydroxy-3,4,5,6-tetrahydro-2H-[1,4′]bipyridinyl-3′-yl)-amide]
< 1000 nM	< 1000 nM	< 1000 nM	–	Nc1ccc(-c2c(F)cccc2F)nc1C(=O)Nc1cnccc1N1CCCC(O)C1 (stereo not drawn) [Example 658, 3-Amino-6-(2,6-difluoro-phenyl)-pyridine-2-carboxylic acid (3-hydroxy-3,4,5,6-tetra-hydro-2H-[1,4′]bipyridinyl-3′-yl)-amide]
< 1000 nM	< 1000 nM	< 1000 nM	–	Nc1ccc(-c2ccccc2F)nc1C(=O)Nc1cnccc1N1CCC[C@@H](O)C1 [Example 659, 3-Amino-6-(2-fluoro-phenyl)-pyridine-2-carboxylic acid (3-hydroxy-3,4,5,6-tetrahydro-2H-[1,4′]bipyridinyl-3′-yl)-amide]
< 1000 nM	< 1000 nM	< 1000 nM	–	Nc1ccc(-c2ccccc2F)nc1C(=O)Nc1cnccc1N1CCC[C@H](O)C1 [Example 660, 3-Amino-6-(2-fluoro-phenyl)-pyridine-2-carboxylic acid (3-hydroxy-3,4,5,6-tetrahydro-2H-[1,4′]bipyridinyl-3′-yl)-amide]
< 1000 nM	< 1000 nM	< 1000 nM	–	Nc1ccc(-c2ccccc2F)nc1C(=O)Nc1cnccc1N1CCCC(O)C1 (stereo not drawn) [Example 661, 3-Amino-6-(2-fluoro-phenyl)-pyridine-2-carboxylic acid (3-hydroxy-3,4,5,6-tetrahydro-2H-[1,4′]bipyridinyl-3′-yl)-amide]
< 1000 nM	< 1000 nM	< 1000 nM	–	CC(C)Oc1ccc(F)c(-c2nc(C(=O)Nc3cnccc3N3CC[C@@H](O)[C@H](N)C3)c(N)cc2F)c1F [Example 664, 3-Amino-6-(2,6-difluoro-3-isopropoxy-phenyl)-5-fluoro-pyridine-2-carboxylic acid (3-amino-4-hydroxy-3,4,5,6-tetra-hydro-2H-[1,4′]bipyridinyl-3′-yl)-amide]
< 1000 nM	< 1000 nM	< 1000 nM	–	CC(C)Oc1ccc(F)c(-c2nc(C(=O)Nc3cnccc3N3CC[C@@H](N)[C@H](O)C3)c(N)cc2F)c1F [Example 666, 3-Amino-6-(2,6-difluoro-3-isopropoxy-phenyl)-5-fluoro-pyridine-2-carboxylic acid (4-amino-3-hydroxy-3,4,5,6-tetra-hydro-2H-[1,4′]bipyridinyl-3′-yl)-amide]
< 1000 nM	< 1000 nM	< 1000 nM	–	CC(C)NC(=O)c1ccc(F)c(-c2ccc(N)c(C(=O)Nc3cnccc3N3CC[C@@H](N)[C@H](O)C3)n2)c1 [Example 668, 3-Amino-6-(2-fluoro-5-isopropylcarbamoyl-phenyl)-pyridine-2-carboxylic acid (4-amino-3-hydroxy-3,4,5,6-tetra-hydro-2H-[1,4′]bipyridinyl-3′-yl)-amide]
< 1000 nM	< 1000 nM	< 1000 nM	–	Nc1ccc(-c2nccs2)nc1C(=O)Nc1cnccc1N1CC[C@@H](O)[C@H](N)C1 [Example 669, 3-Amino-6-thiazol-2-yl-pyridine-2-carboxylic acid (3-amino-4-hydroxy-3,4,5,6-tetra-hydro-2H-[1,4′]bipyridinyl-3′-yl)-amide]
< 1000 nM	< 1000 nM	< 1000 nM	–	CC(C)NC(=O)c1ccc(F)c(-c2ccc(N)c(C(=O)Nc3cnccc3N3CC[C@@H](O)[C@H](N)C3)n2)c1 [Example 671, 3-Amino-6-(2-fluoro-5-isopropylcarbamoyl-phenyl)-pyridine-2-carboxylic acid (3-amino-4-hydroxy-3,4,5,6-tetra-hydro-2H-[1,4′]bipyridinyl-3′-yl)-amide]
< 1000 nM	< 1000 nM	< 1000 nM	–	Nc1ccc(-c2c(F)cccc2F)nc1C(=O)Nc1cnccc1N1C[C@@H](N)C[C@@H](O)C1 [Example 672, 3-Amino-6-(2,6-difluoro-phenyl)-pyridine-2-carboxylic acid (3-amino-5-hydroxy-3,4,5,6-tetrahydro-2H-[1,4′]bi-pyridinyl-3′-yl)-amide]
< 1000 nM	< 1000 nM	< 1000 nM	–	CC1(N)CCCN(c2ccncc2NC(=O)c2nc(-c3c(F)cccc3F)ncc2N)C1 (stereo not drawn) [Example 673, 5-Amino-2-(2,6-difluoro-phenyl)-pyrimidine-4-carboxylic acid (3-amino-3-methyl-3,4,5,6-tetrahydro-2H-[1,4′]bipyridinyl-3′-yl)-amide]
< 1000 nM	< 1000 nM	< 1000 nM	–	CC1(N)CCCN(c2ccncc2NC(=O)c2nc(-c3ccccc3F)ccc2N)C1 (stereo not drawn) [Example 674, 3-Amino-6-(2-fluoro-phenyl)-pyridine-2-carboxylic acid (3-amino-3-methyl-3,4,5,6-tetra-hydro-2H-[1,4′]bipyridinyl-3′-yl)-amide]
< 1000 nM	< 1000 nM	< 1000 nM	–	CC(C)NC(=O)c1ccc(F)c(-c2ccc(N)c(C(=O)Nc3cnccc3N3CCCC(C)(N)C3)n2)c1 (stereo not drawn) [Example 675, 3-Amino-6-(2-fluoro-5-isopropylcarbamoyl-phenyl)-pyridine-2-carboxylic acid (3-amino-3-methyl-3,4,5,6-tetra-hydro-2H-[1,4′]bipyridinyl-3′-yl)-amide]
< 1000 nM	< 1000 nM	< 1000 nM	–	CC1(N)CCCN(c2ccncc2NC(=O)c2nc(-c3ccccc3F)ncc2N)C1 (stereo not drawn) [Example 676, 5-Amino-2-(2-fluoro-phenyl)-pyrimidine-4-carboxylic acid (3-amino-3-methyl-3,4,5,6-tetrahydro-2H-[1,4′]bi-pyridinyl-3′-yl)-amide]
< 1000 nM	< 1000 nM	< 1000 nM	–	CC(C)NC(=O)c1ccc(F)c(-c2ccc(N)c(C(=O)Nc3cnccc3N3C[C@@H](N)C[C@@H](O)C3)n2)c1 [Example 677, 3-Amino-6-(2-fluoro-5-isopropylcarbamoyl-phenyl)-pyridine-2-carboxylic acid (3-amino-5-hydroxy-3,4,5,6-tetra-hydro-2H-[1,4′]bipyridinyl-3′-yl)-amide]
< 1000 nM	< 1000 nM	< 1000 nM	–	Nc1ccc(-c2ccccc2F)nc1C(=O)Nc1cnccc1N1C[C@@H](N)C[C@@H](O)C1 [Example 678, 3-Amino-6-(2-fluoro-phenyl)-pyridine-2-carboxylic acid (5-amino-3-hydroxy-3,4,5,6-tetra-hydro-2H-[1,4′]bipyridinyl-3′-yl)-amide]
< 1000 nM	–	< 1000 nM	< 1000 nM	Nc1ccc(-c2c(F)cccc2F)nc1C(=O)Nc1cnccc1N1CC[C@H](O)[C@@H](N)C1 [Example 680, 3-Amino-6-(2,6-difluoro-phenyl)-pyridine-2-carboxylic acid (3-amino-4-hydroxy-3,4,5,6-tetrahydro-2H-[1,4′]bi-pyridinyl-3′-yl)-amide]
< 1000 nM	< 1000 nM	< 1000 nM	–	N[C@@H]1CN(c2ccncc2NC(=O)c2ccc(F)c(-c3ccccc3)n2)CC[C@H]1O [Example 681, 5-Fluoro-6-phenyl-pyridine-2-carboxylic acid (3-amino-4-hydroxy-3,4,5,6-tetrahydro-2H-[1,4′]bipyridinyl-3′-yl)-amide]
< 1000 nM	< 1000 nM	< 1000 nM	–	N[C@@H]1CN(c2ccncc2NC(=O)c2ccc(F)c(-c3ccccc3F)n2)CC[C@H]1O [Example 682, 5-Fluoro-6-(2-fluoro-phenyl)-pyridine-2-carboxylic acid (3-amino-4-hydroxy-3,4,5,6-tetra-hydro-2H-[1,4′]bipyridinyl-3′-yl)-amide]
< 1000 nM	< 1000 nM	< 1000 nM	–	N[C@H]1C[C@@H](O)CN(c2ccncc2NC(=O)c2ccc(F)c(-c3ccccc3F)n2)C1 [Example 684, 5-Fluoro-6-(2-fluoro-phenyl)-pyridine-2-carboxylic acid (5-amino-3-hydroxy-3,4,5,6-tetra-hydro-2H-[1,4′]bipyridinyl-3′-yl)-amide]
< 1000 nM	< 1000 nM	< 1000 nM	–	N#Cc1ccc(-c2ccc(N)c(C(=O)Nc3cnccc3N3CCC[C@H](N)C3)n2)c(F)c1 [Example 686, 3-Amino-6-(4-cyano-2-fluoro-phenyl)-pyridine-2-carboxylic acid (3-amino-3,4,5,6-tetra-hydro-2H-[1,4′]bipyridinyl-3′-yl)-amide]
